Source: patent US11767323B2, “Tricyclic pyridone compounds as JAK2 V617F inhibitors” (Incyte Corporation, priority 2020, dated 2023)
pIC50: −log10 of the molar value.

What was measured:
[1] = target: catalytic domain (JH1, amino acids 826-1132) of human JAK2 (Homo sapiens (Human), UniProt O60674); experiment: JAK2 LanthaScreen JH1 Binding Assay; details: JAK2 JH1 1.5 nM, 50 nM tracer, 2 hours at 25° C.; read-out: JH1 BIND IC50
Experimental: Example A. JAK2 LanthaScreen JH1 Binding Assay
JAK2 JH1 binding assay utilizes catalytic domain (JH1, amino acids 826-1132) of human JAK2 expressed as N-terminal FLAG-tagged, biotinylated protein in a baculovirus expression system (Carna Biosciences, Product #08-445-20N). The assay was conducted in black 384-well polystyrene plates in a final reaction volume of 20 μL. JAK2 JH1 (1.5 nM) was incubated with compounds (100 nL serially diluted in DMSO) in the presence of 50 nM Fluorescent JAK2-JH1 Tracer and 0.5 nM Streptavidin-Tb cryptate (Cisbio Part #610SATLB) in assay buffer (50 mM Tris, pH=7.5, 10 mM MgCl2, 0.01% Brij-35, 0.1% BSA, 1 mM EGTA, 5% Glycerol and 5 mM DTT). Non-specific binding was accessed in the presence of 2 mM ATP. After incubation for 2 hours at 25° C., LanthaScreen signals were read on a PHERAstar FS plate reader (BMG LABTECH). Data was analyzed with IDBS XLfit and GraphPad Prism 5.0 software using a four parameter dose response curve to determine IC50 for each compound.

[2] = target: pseudo-kinase domain (JH2, amino-acids 536-812) of human Wild Type JAK2 (Homo sapiens (Human), UniProt O60674, F794H/W659A/W777A); experiment: JAK2 LanthaScreen JH2-WT Binding Assay; details: JAK2 JH2-WT 0.145 nM, 50 nM tracer, 1 hour at 25° C.; read-out: JH2 BIND WT IC50
pseudo-kinase domain (JH2, amino-acids 536-812) of human Wild Type JAK2, sequence (O60674 536-812 W659A/W777A/F794H): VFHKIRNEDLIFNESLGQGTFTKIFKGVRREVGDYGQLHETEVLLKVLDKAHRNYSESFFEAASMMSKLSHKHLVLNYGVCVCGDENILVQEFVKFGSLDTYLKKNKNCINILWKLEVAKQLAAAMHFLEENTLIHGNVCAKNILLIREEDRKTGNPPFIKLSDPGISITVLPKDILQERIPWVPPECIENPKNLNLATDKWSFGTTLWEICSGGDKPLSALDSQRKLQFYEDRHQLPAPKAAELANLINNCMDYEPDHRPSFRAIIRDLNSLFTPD
Experimental: Example B. JAK2 LanthaScreen JH2-WT Binding Assay
(§1) JAK2 JH2-WT binding assay utilizes pseudo-kinase domain (JH2, amino-acids 536-812 with 3 surface mutations W659A, W777A, F794H) of human Wild Type JAK2 expressed as C-terminal His-Avi-tagged, biotinylated protein in a baculovirus expression system (BPS Bioscience, Catalog #79463). The assay was conducted in black 384-well polystyrene plates in a final reaction volume of 20 μL. JAK2 JH2-WT (0.145 nM) was incubated with compounds (100 nL serially diluted in DMSO) in the presence of 50 nM Fluorescent JAK2-JH2 Tracer (MedChem Express Catalog #HY-102055) and 0.25 nM Streptavidin-Tb cryptate (Cisbio Part #610SATLB) in assay buffer (50 mM Tris, pH=7.5, 10 mM MgCl2, 0.01% Brij-35, 0.1% BSA, 1 mM EGTA, 5% Glycerol and 5 mM DTT). Non-specific binding was accessed in the presence of 2 mM ATP. After incubation for 1 hour at 25° C., LanthaScreen signals were read on a PHERAstar FS plate reader (BMG LAB TECH). Data was analyzed with IDBS XLfit and GraphPad Prism 5.0 software using a four parameter dose response curve to determine IC50 for each compound.

[3] = target: pseudo-kinase domain (JH2, amino-acids 536-812) of human V617F mutant JAK2 (Homo sapiens (Human), UniProt O60674, F794H/V617F/W659A/W777A); experiment: JAK2 LanthaScreen JH2-V617F Binding Assay; details: JAK2 JH2-V617F 0.26 nM, 50 nM tracer, 1 hour at 25° C.; read-out: JH2 BIND V617F IC50
pseudo-kinase domain (JH2, amino-acids 536-812) of human V617F mutant JAK2, sequence (O60674 536-812 V617F/W659A/W777A/F794H): as the sequence (O60674 536-812 W659A/W777A/F794H) above, with V82F counted along it
Experimental: Example C. JAK2 LanthaScreen JH2-V617F Binding Assay
as §1, with “JH2-V617F” for “JH2-WT”, “V617F mutant” for “Wild Type”, “#79498).” for “#79463).”, “JH2-V617F (0.26” for “JH2-WT (0.145”, “LABTECH).” for “LAB TECH).”

[4] = target: catalytic domain (JH1, amino acids 808-1132) of human JAK2 (Homo sapiens (Human), UniProt O60674); experiment: JAK2 HTRF Enzyme Activity Assay; assay type: biochemical; details: JAK2 0.015 nM, ATP (30 μM or 1 mM), 60 minutes at 25° C.
catalytic domain (JH1, amino acids 808-1132) of human JAK2, sequence (O60674 808-1132): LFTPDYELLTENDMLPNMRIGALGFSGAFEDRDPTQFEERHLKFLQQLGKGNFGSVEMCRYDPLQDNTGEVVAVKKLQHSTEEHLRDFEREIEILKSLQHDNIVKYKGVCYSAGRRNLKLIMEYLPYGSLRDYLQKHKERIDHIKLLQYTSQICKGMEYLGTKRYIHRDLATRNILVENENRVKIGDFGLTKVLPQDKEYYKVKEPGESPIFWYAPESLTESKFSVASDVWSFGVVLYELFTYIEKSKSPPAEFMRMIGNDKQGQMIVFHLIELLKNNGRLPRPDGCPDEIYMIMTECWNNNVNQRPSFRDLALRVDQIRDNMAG
Experimental: Example D. JAK2 HTRF Enzyme Activity Assay
JAK2 enzyme activity assays utilize catalytic domain (JH1, amino acids 808-1132) of human JAK2 expressed as N-terminal His-tagged protein in a baculovirus expression system (BPS Bioscience, Catalog #40450). The assays was conducted in black 384-well polystyrene plates in a final reaction volume of 20 μL. JAK2 (0.015 nM) was incubated with compounds (100 nL serially diluted in DMSO) in the presence of ATP (30 μM or 1 mM) and 500 nM Biotin-labeled EQEDEPEGDYFEWLE (SEQ ID NO.: 1) peptide (BioSource International, custom synthesis) in assay buffer (50 mM Tris, pH=7.5, 10 mM MgCl2, 0.01% Brij-35, 0.1% BSA, 1 mM EGTA, 5% Glycerol and 5 mM DTT) for 60 minutes at 25° C. The reactions were stopped by the addition of 10 μL of detection buffer (50 mM Tris, pH 7.8, 0.5 mg/mL BSA, 150 mM NaCl), supplemented with EDTA, LANCE Eu-W1024 anti-phosphotyrosine (PY20), (PerkinElmer, Catalog #AD0067) and Streptavidin SureLight APC (PerkinElmer Catalog #CR130-100), for a final concentration of 15 mM, 1.5 nM and 75 nM, respectively. HTRF signals were read after 30 minutes incubation at room temperature on a PHERAstar FS plate reader (BMG LAB TECH). Data was analyzed with IDBS XLfit and GraphPad Prism 5.0 software using a four parameter dose response curve to determine IC50 for each compound.

catalytic domain (JH1, amino acids 826-1132) of human JAK2, sequence (O60674 826-1132): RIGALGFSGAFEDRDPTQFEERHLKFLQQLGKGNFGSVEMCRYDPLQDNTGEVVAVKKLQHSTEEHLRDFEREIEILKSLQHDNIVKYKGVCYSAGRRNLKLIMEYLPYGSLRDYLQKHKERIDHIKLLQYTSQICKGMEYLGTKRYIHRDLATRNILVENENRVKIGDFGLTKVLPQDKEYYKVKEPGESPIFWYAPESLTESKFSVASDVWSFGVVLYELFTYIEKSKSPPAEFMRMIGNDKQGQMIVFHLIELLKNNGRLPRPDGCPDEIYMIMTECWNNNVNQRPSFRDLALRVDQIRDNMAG

Compound	pIC50 [1]	pIC50 [2]	pIC50 [3]	pIC50 [4]
Cc1cc(-c2c(C3CCN(S(C)(=O)=O)C3)c3c4cc(-c5cnn(C)c5)[nH]c4ncc3n(C)c2=O)on1 (stereo not drawn) [Example 33, 6-Methyl-2-(1-methyl-1H-pyrazol-4-yl)-8-(3-methylisoxazol-5-yl)-9-(1-(methylsulfonyl)pyrrolidin-3-yl)-3,6-dihydro-7H-pyrrolo[3,2-f][1,7]naphthyridin-7-one]	6.30 to 7.00	≥ 7.00	≥ 7.00	6.30 to 7.00
CN(C)C(=O)c1cc2c3c(-c4ccc5c(cnn5C)c4)c(-c4cnn(C)c4)[nH]c3ncc2n(C)c1=O [Example 43, N,N,6-trimethyl-1-(1-methyl-1H-indazol-5-yl)-2-(1-methyl-1H-pyrazol-4-yl)-7-oxo-6,7-dihydro-3H-pyrrolo[3,2-f][1,7]naphthyridine-8-carboxamide]	5.00 to 6.00	≥ 7.00	≥ 7.00	5.00 to 6.00
Cc1cc(-c2c(-c3ccc(C(=O)Nc4ccc5oc(C)nc5c4)cc3)c3c4cc(-c5cnn(C)c5)[nH]c4ncc3n(C)c2=O)on1 [Example 26, 4-(6-Methyl-2-(1-methyl-1H-pyrazol-4-yl)-8-(3-methylisoxazol-5-yl)-7-oxo-6,7-dihydro-3H-pyrrolo[3,2-f][1,7]naphthyridin-9-yl)-A-(2-methylbenzo[d]oxazol-5-yl)benzamide]	6.30 to 7.00	≥ 7.00	≥ 7.00	6.30 to 7.00
COCCN(C)c1ccc(-c2c(-c3cc(C)no3)c(=O)n(C)c3cnc4[nH]c(-c5cnn(C)c5)cc4c23)cc1 [Example 29, 9-(4-((2-Methoxyethyl)(methyl)amino)phenyl)-6-methyl-2-(1-methyl-1H-pyrazol-4-yl)-8-(3-methylisoxazol-5-yl)-3,6-dihydro-7H-pyrrolo[3,2-f][1,7]naphthyridin-7-one]	6.30 to 7.00	≥ 7.00	≥ 7.00	6.30 to 7.00
Cc1c(-c2ccc(C(=O)O)cc2)c(=O)[nH]c2cnc3[nH]c(-c4ccc(CN5CCC(S(C)(=O)=O)CC5)cc4)cc3c12 [Example 6, 4-(9-Methyl-2-(4-((4-(methylsulfonyl)piperidin-1-yl)methyl)phenyl)-7-oxo-6,7-dihydro-3H-pyrrolo[3,2-f][1,7]naphthyridin-8-yl)benzoic acid]	< 5.00	≥ 7.00	≥ 7.00	< 5.00
Cc1cc(-c2c(-c3ccc(CNC4CCCOC4)cc3)c3c4cc(-c5cnn(C)c5)[nH]c4ncc3n(C)c2=O)on1 (stereo not drawn) [Example 28, 6-Methyl-2-(1-methyl-1H-pyrazol-4-yl)-8-(3-methylisoxazol-5-yl)-9-(4-(((tetrahydro-2H-pyran-3-yl)amino)methyl)phenyl)-3,6-dihydro-7H-pyrrolo[3,2-f][1,7]naphthyridin-7-one]	6.30 to 7.00	≥ 7.00	≥ 7.00	6.30 to 7.00
CCc1c(-c2ccc(C(=O)O)cc2)c(=O)n(C)c2cnc3[nH]c(-c4ccc(CN5CCC(S(C)(=O)=O)CC5)cc4)cc3c12 [Example 16, 4-(9-Ethyl-6-methyl-2-(4-((4-(methylsulfonyl)piperidin-1-yl)methyl)phenyl)-7-oxo-6,7-dihydro-3H-pyrrolo[3,2-f][1,7]naphthyridin-8-yl)benzoic acid]	6.30 to 7.00	≥ 7.00	≥ 7.00	6.30 to 7.00
CN(C)C(=O)c1ccc(-c2c(-c3cnn(C)c3)[nH]c3ncc4c(cc(N5CCC(S(C)(=O)=O)CC5)c(=O)n4C)c23)cc1 [Example 39, N,N-dimethyl-4-(6-methyl-2-(1-methyl-1H-pyrazol-4-yl)-8-(4-(methylsulfonyl)piperidin-1-yl)-7-oxo-6,7-dihydro-3H-pyrrolo[3,2-f][1,7]naphthyridin-1-yl)benzamide]	6.30 to 7.00	≥ 7.00	≥ 7.00	6.30 to 7.00
COc1c(-c2ccccc2)c(=O)n(C)c2cnc3[nH]c(-c4ccc(CN5CCC(S(C)(=O)=O)CC5)cc4)cc3c12 [Example 20, 9-Methoxy-6-methyl-2-(4-((4-(methylsulfonyl)piperidin-1-yl)methyl)phenyl)-8-phenyl-3,6-dihydro-7H-pyrrolo[3,2-f][1,7]naphthyridin-7-one]	≥ 7.00	≥ 7.00	6.30 to 7.00	≥ 7.00
Cc1c(-c2ccc3c(c2)OCCO3)c(=O)[nH]c2cnc3[nH]c(-c4ccc(CN5CCC(S(C)(=O)=O)CC5)cc4)cc3c12 [Example 19, 8-(2,3-Dihydrobenzo[6][1,4]dioxin-6-yl)-9-methyl-2-(4-((4-(methylsulfonyl)piperidin-1-yl)methyl)phenyl)-3,6-dihydro-7H-pyrrolo[3,2-f][1,7]naphthyridin-7-one]	5.00 to 6.00	5.00 to 6.00	5.00 to 6.00	5.00 to 6.00
CN(C)C(=O)c1ccc(-c2c(-c3cnn(C)c3)[nH]c3ncc4c(cc(Nc5ccc(Cc6nnn[nH]6)cc5)c(=O)n4C)c23)cc1 [Example 35, 4-(8-((4-((1H-tetrazol-5-yl)methyl)phenyl)amino)-6-methyl-2-(1-methyl-1H-pyrazol-4-yl)-7-oxo-6,7-dihydro-3H-pyrrolo[3,2-f][1,7]naphthyridin-1-yl)-N,N-dimethylbenzamide]	≥ 7.00	≥ 7.00	≥ 7.00	≥ 7.00
Cc1c(-c2cccc(Cl)c2)c(=O)n(C)c2cnc3[nH]c(-c4ccc(CN5CCC(S(C)(=O)=O)CC5)cc4)cc3c12 [Example 11, 8-(3-Chlorophenyl)-6,9-dimethyl-2-(4-((4-(methylsulfonyl)piperidin-1-yl)methyl)phenyl)-3,6-dihydro-7H-pyrrolo[3,2-f][1,7]naphthyridin-7-one]	≥ 7.00	≥ 7.00	≥ 7.00	≥ 7.00
